Data from PubChem BioAssay AID2060490 (Molecular Pharmacology Branch, DTP, NCI, 2025).

System: 885512-296-R-J2-PDC complex spheroid viability
Assay: Anticancer human tumor 885512-296-R-J2-PDC patient-derived breast carcinoma cell line growth inhibition [GQUAD]
Conditions: for IC50: curve of first compound; for viability, T/C: stronger effect = lower value
In short: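 Viability of tumor cells grown as complex spheroids with endothelial and stromal cells, exposed to drug combinations. Top concentration at or near clinical Cmax (else 10 microM), diluted in half-log increments.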

[1] = second compound 0.0316 µM, first compound 0.0316 µM
[2] = second compound 0.0316 µM, first compound 0.1 µM
[3] = second compound 0.0316 µM, first compound 0.316 µM
[4] = second compound 0.0316 µM, first compound 1 µM
[5] = second compound 0.0316 µM, first compound 3.16 µM
[6] = second compound 0.0316 µM, first compound 10 µM
[7] = second compound 0.1 µM, first compound 0.0316 µM
[8] = second compound 0.1 µM, first compound 0.1 µM
[9] = second compound 0.1 µM, first compound 0.316 µM
[10] = second compound 0.1 µM, first compound 1 µM
[11] = second compound 0.1 µM, first compound 3.16 µM
[12] = second compound 0.1 µM, first compound 10 µM
[13] = second compound 0.316 µM, first compound 0.0316 µM
[14] = second compound 0.316 µM, first compound 0.1 µM
[15] = second compound 0.316 µM, first compound 0.316 µM
[16] = second compound 0.316 µM, first compound 1 µM
[17] = second compound 0.316 µM, first compound 3.16 µM
[18] = second compound 0.316 µM, first compound 10 µM
[19] = second compound 1 µM, first compound 0.0316 µM
[20] = second compound 1 µM, first compound 0.1 µM
[21] = second compound 1 µM, first compound 0.316 µM
[22] = second compound 1 µM, first compound 1 µM
[23] = second compound 1 µM, first compound 3.16 µM
[24] = second compound 1 µM, first compound 10 µM
[25] = second compound 3.16 µM, first compound 0.0316 µM
[26] = second compound 3.16 µM, first compound 0.1 µM
[27] = second compound 3.16 µM, first compound 0.316 µM
[28] = second compound 3.16 µM, first compound 1 µM
[29] = second compound 3.16 µM, first compound 3.16 µM
[30] = second compound 3.16 µM, first compound 10 µM
[31] = second compound 10 µM, first compound 0.0316 µM
[32] = second compound 10 µM, first compound 0.1 µM
[33] = second compound 10 µM, first compound 0.316 µM
[34] = second compound 10 µM, first compound 1 µM
[35] = second compound 10 µM, first compound 3.16 µM
[36] = second compound 10 µM, first compound 10 µM
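Further: spheroids exposed to the compounds for one week.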
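Wherever viability, T/C is given: percent of tumor spheroid viability relative to DMSO vehicle control wells.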

Work on `COc1cccc2c1C(=O)c1c(O)c3c(c(O)c1C2=O)CC(O)(C(=O)CO)CC3OC1CC(N)C(O)C(C)O1` (stereo unspecified) + Cc1cnc(CNC(=O)c2c(=O)c3ccc(N4CCCN(C)CC4)nc3n3c2sc2ccccc23)cn1 yielded an IC50 (second compound 0.0316 µM) of 60.1 nM, an IC50 (second compound 0.1 µM) of under 31.6 nM and an IC50 (second compound 0.316 µM) of under 31.6 nM. The IC50 (second compound 1 µM) was under 31.6 nM, the IC50 (second compound 3.16 µM) was under 31.6 nM and the IC50 (second compound 10 µM) was under 31.6 nM. It also gave a viability, T/C [1] of 71%, a viability, T/C [2] of 30.1% and a viability, T/C [3] of 21.9%. It also gave a viability, T/C [4] of 4.72%, a viability, T/C [5] of 0.41% and a viability, T/C [6] of 2.74%. For the same molecule, the viability, T/C [7] was 50.4%, the viability, T/C [8] was 27.2% and the viability, T/C [9] was 20.9%. For the same molecule, the viability, T/C [10] was 10.3%, the viability, T/C [11] was 0.59% and the viability, T/C [12] was 2.89%. For the same molecule, the viability, T/C [13] was 28.2%, the viability, T/C [14] was 23.7% and the viability, T/C [15] was 18.5%. The viability, T/C [16] was 8.18%, the viability, T/C [17] was 0.4% and the viability, T/C [18] was 1.91%. The viability, T/C [19] was 19.8%, the viability, T/C [20] was 25.2% and the viability, T/C [21] was 13.7%. For the same molecule, the viability, T/C [22] was 3.8%, the viability, T/C [23] was 0.09% and the viability, T/C [24] was 0.32%. The viability, T/C [25] was 26.7%, the viability, T/C [26] was 25.6% and the viability, T/C [27] was 15.1%. The viability, T/C [28] was 0.12%, the viability, T/C [29] was 0.12% and the viability, T/C [30] was 0.15%. For the same molecule, the viability, T/C [31] was 0.07%, the viability, T/C [32] was 0.14% and the viability, T/C [33] was 0.22%. It also gave a viability, T/C [34] of 0.15%, a viability, T/C [35] of 0.2% and a viability, T/C [36] of 0.21%.

For `COc1cc(C2c3cc4c(cc3C(OC3OC5COC(C)OC5C(O)C3O)C3COC(=O)C23)OCO4)cc(OC)c1O` (stereo unspecified) + Cc1[nH]c2ccc(F)cc2c1-c1nc2c3cccnc3c3ncccc3c2[nH]1, the IC50 (second compound 0.0316 µM) was 739 nM, the IC50 (second compound 0.1 µM) was 806 nM and the IC50 (second compound 0.316 µM) was 715 nM. The IC50 (second compound 1 µM) was 578 nM, the IC50 (second compound 3.16 µM) was under 31.6 nM and the IC50 (second compound 10 µM) was under 31.6 nM. The viability, T/C [1] was 96.3%, the viability, T/C [2] was 86.7% and the viability, T/C [3] was 77.3%. For the same molecule, the viability, T/C [4] was 41%, the viability, T/C [5] was 13.6% and the viability, T/C [6] was 10.1%. For the same molecule, the viability, T/C [7] was 117%, the viability, T/C [8] was 91.5% and the viability, T/C [9] was 94.2%. The viability, T/C [10] was 39.9%, the viability, T/C [11] was 11.4% and the viability, T/C [12] was 10%. It also gave a viability, T/C [13] of 91.8%, a viability, T/C [14] of 98.4% and a viability, T/C [15] of 82.1%. The viability, T/C [16] was 36.1%, the viability, T/C [17] was 16.5% and the viability, T/C [18] was 8.49%. It also gave a viability, T/C [19] of 70.5%, a viability, T/C [20] of 76% and a viability, T/C [21] of 62.3%. The viability, T/C [22] was 37.9%, the viability, T/C [23] was 13.7% and the viability, T/C [24] was 6.78%. The viability, T/C [25] was 21.3%, the viability, T/C [26] was 13.6% and the viability, T/C [27] was 15.8%. For the same molecule, the viability, T/C [28] was 7.13%, the viability, T/C [29] was 4.87% and the viability, T/C [30] was 2.93%. The viability, T/C [31] was 1.61%, the viability, T/C [32] was 3.08% and the viability, T/C [33] was 1.52%. It also gave a viability, T/C [34] of 1.53%, a viability, T/C [35] of 1.51% and a viability, T/C [36] of 1.37%.

Molecule `C#Cc1c(F)ccc2cc(O)cc(-c3ncc4c(N5CC6CCC(C5)N6)nc(OCC56CCCN5CC(F)C6)nc4c3F)c12` (stereo unspecified) + Cc1[nH]c2ccc(F)cc2c1-c1nc2c3cccnc3c3ncccc3c2[nH]1 has an IC50 (second compound 0.0316 µM) of 1600 nM, an IC50 (second compound 0.1 µM) of 1450 nM and an IC50 (second compound 0.316 µM) of 1450 nM. It also gave an IC50 (second compound 1 µM) of 393 nM, an IC50 (second compound 3.16 µM) of under 31.6 nM and an IC50 (second compound 10 µM) of under 31.6 nM. For the same molecule, the viability, T/C [1] was 109%, the viability, T/C [2] was 92.7% and the viability, T/C [3] was 94.5%. For the same molecule, the viability, T/C [4] was 73.4%, the viability, T/C [5] was 13.6% and the viability, T/C [6] was 18.1%. For the same molecule, the viability, T/C [7] was 103%, the viability, T/C [8] was 90.8% and the viability, T/C [9] was 95%. It also gave a viability, T/C [10] of 67.7%, a viability, T/C [11] of 8.04% and a viability, T/C [12] of 17.1%. For the same molecule, the viability, T/C [13] was 88.6%, the viability, T/C [14] was 87.4% and the viability, T/C [15] was 82.3%. The viability, T/C [16] was 67.5%, the viability, T/C [17] was 10.2% and the viability, T/C [18] was 16.4%. It also gave a viability, T/C [19] of 52.9%, a viability, T/C [20] of 52.9% and a viability, T/C [21] of 54.3%. The viability, T/C [22] was 35.6%, the viability, T/C [23] was 1.25% and the viability, T/C [24] was 1.01%. It also gave a viability, T/C [25] of 2.98%, a viability, T/C [26] of 2.55% and a viability, T/C [27] of 4.13%. For the same molecule, the viability, T/C [28] was 1.7%, the viability, T/C [29] was 0.26% and the viability, T/C [30] was 0.33%. For the same molecule, the viability, T/C [31] was 1.35%, the viability, T/C [32] was 1.38% and the viability, T/C [33] was 1.82%. It also gave a viability, T/C [34] of 1.42%, a viability, T/C [35] of 0.24% and a viability, T/C [36] of 0.41%.
